From ChEMBL document CHEMBL1136347, “Synthesis of 17beta-estradiol platinum(II) complexes: biological evaluation on breast cancer cell lines” (Bioorg Med Chem Lett, 2003) come the findings set out here.

Common to all, as to format: functional, cell-based
One experiment has as its system MCF7. Nature of the experiment: In vitro inhibition of estrogen receptor positive human breast cancer MCF-7 cell proliferation.
The test system of a further experiment is ZR-75-1. Nature of the experiment: In vitro inhibition of estrogen receptor positive human breast cancer ZR-75-1 cell proliferation.
The subject of the next experiment is MDA-MB-231. Nature of the experiment: In vitro inhibition of estrogen receptor negative human breast cancer MDA-MB-231 cell proliferation.
The next experiment deals with Hs-578T. Nature of the experiment: In vitro inhibition of estrogen receptor negative human breast cancer Hs 578.T cell proliferation.

Broadly, the IC50 is the midpoint of a concentration-inhibition curve. A high value points to weaker potency in that assay. Turning to CISPLATIN, the half-inhibitory concentration (IC50) was 16.7 µM in the experiment on MCF7, 9.3 µM in the experiment with ZR-75-1, 12.7 µM with MDA-MB-231 and 9.1 µM in the experiment on Hs-578T.
Consider Cisplatin complex [listing 1 of 8 here], for which the IC50 in the experiment with MCF7 worked out at 4 µM; with ZR-75-1, 2.5 µM; in the experiment with MDA-MB-231, 4.7 µM; in the experiment with Hs-578T, 3.5 µM.
The like results for Cisplatin complex [listing 2 of 8 here] were, in that order, 5.8 µM, 4.2 µM, 8.6 µM and 2.7 µM.
The like results for Cisplatin complex [listing 3 of 8 here] were, in that order, 4.3 µM, 5 µM, 4.8 µM and 4.1 µM.
Taken in the same sequence, the figures for Cisplatin complex [listing 4 of 8 here] were over 40 µM, 31.5 µM, over 40 µM and over 40 µM.
As to Cisplatin complex [listing 5 of 8 here], the 50% inhibitory concentration (IC50) stood at 31.5 µM in the experiment with MCF7, 16.4 µM in the experiment with ZR-75-1, 18.5 µM in the experiment with MDA-MB-231 and 28 µM with Hs-578T.
As to Cisplatin complex [listing 6 of 8 here], the IC50 with MCF7 was found to be 20 µM; in the experiment on ZR-75-1 it was 15.8 µM; with Hs-578T, 22.9 µM.
Turning to Cisplatin complex [listing 7 of 8 here], the 50% inhibitory concentration (IC50) in the experiment with ZR-75-1 amounted to 14 µM; with MDA-MB-231, 12.7 µM; with Hs-578T, 17.3 µM.
In the case of Cisplatin complex [listing 8 of 8 here], the 50% inhibitory concentration (IC50) in the experiment on MCF7 was 13.4 µM; in the experiment on ZR-75-1 it was 9.3 µM; with MDA-MB-231 it was 9.2 µM; in the experiment with Hs-578T, 12.4 µM.
